Experimental data taken from PMC3764137, “Sulphamoylated 2-Methoxyestradiol Analogues Induce Apoptosis in Adenocarcinoma Cell Lines” (PLoS ONE, 2013).
Entries after “also recorded” stand apart in the source; their conditions may differ.

Legend:
Type in all cases: cell-based, human
caspase-6 = test: Caspase 6 colorimetric assay; details: 0.5 μM, 24 h
Description: (§1) Possible activation of caspase 3, -6 and -8 was investigated by means of caspase 3, caspase 6 and FLICE/caspase 8 colorimetric kits, respectively. Cells (1,000,000) were seeded with an overnight attachment policy. After 24 h of exposure to 0.5 μM of the sulphamoylated 2ME2 analogues, cells were detached with trypsin and centrifuged at 13,000× g. Cells (500,000) were resuspended in 50 µl of chilled cell lysis buffer and incubated on ice for 10 min. Cells were centrifuged at 10,000×g for a min. Supernatant was transferred to a fresh tube and put on ice. After determination of the protein concentration using the bicinchoninic acid (BCA) protein assay (Thermo Fisher Scientific, Johannesburg, South Africa), 100 µg protein/50 µl cell lysis buffer was mixed with 50 µl 2X reaction buffer (containing 10 mM Dithiothreitol (DTT)). Ac-Asp-Glu-Val-Asp-p-nitroanilide (Ac-DEVD-pNA) (5 µl of 4 mM) (caspase-3-specific substrate), or 5 µl 4 mM […] (Ac-VEID-pNA) (caspase-6-specific substrate), or 5 µl 4 mM Ac-Ile-Glu-Thr-Asp-p-nitroanilide (Ac-IETD-pNA) (caspase-8-specific substrate) was added and the mixture was incubated at 37°C for 120 min (200 µM final concentration). Absorbance was determined at 405 nm on the ELx800 Universal Microplate Reader available from Bio-Tek Instruments Inc. (Vermont, United States of America).

HeLa cells [1] = test: Double immunofluorescence of intracellular microtubules; details: 24 h, 0.189 μM ESE-15-one, 0.5 μM EMBS and ESE-16, 1μM colchicine
Description: (§2) In order to visualize the effect of the 2ME2 analogues on microtubule dynamics and integrity, a double immunofluorescence technique using antibodies against tyrosinated and detyrsosinated tubulin was conducted as described by Paturle-Lafanechère et al. (2004). HeLa and MDA-MB-231 cells were seeded onto sterilized coverslips and allowed to grow to 80% confluency for 48 h. Cells were exposed to 0.189 μM ESE-15-one, 0.5 μM EMBS and ESE-16 along with DMSO (negative control) and 1μM colchicine as a positive control for 24 h. Cells were permeablised permeabilized with warmed OPT buffer (80 mmol/L Pipes, […], […], 0.5% Triton X-100 and glycerol 10%, pH 6.8), followed by fixation in ice-cold methanol at −20°C and were subsequently incubated with the primary antibody cocktail (PBS containing anti-detyrosinated tubulin (L4), anti-[…], BSA 0.3%, tween 0.1%). After incubation, cells were incubated with the secondary antibodies, namely Alexa 488 (Invitrogen) and Cy3 (Jackson ImmunoResearch laboratories). Samples were visualized using a Zeiss AxioImager Z1 microscope controlled by Axiovision softwared (Carl Zeiss) (X63 oil objective). Images were captured using an Ocra R2 N/B camera (Hamamatsu) and assessed for microtubule integrity and ratio of tyrosinated to detyrosinated tubulin.

MDA-MB-231 cells = test: as above; details: MDA-MB-231, 24 h; 0.189 μM ESE-15-one, 0.5 μM EMBS and ESE-16, 1μM colchicine
Description: as §2

HeLa cells [2] = test: Mitochondrial membrane potential assay (Mitocapture, flow cytometry); details: 0.5 μM analogues (2-methoxyestradiol-bis-sulphamate 0.55 μM), 24 h
Description: Cells (500,000) were seeded with an overnight attachment policy. After 24 h of exposure to 0.5 μM of the sulphamoylated 2ME2 analogues, cells were detached using trypsin and centrifuged at 13,000×g.

caspase 3 = test: Caspase 3 colorimetric assay in MDA-MB-231 cells; details: MDA-MB-231, 0.5 μM, 24 h
Description: as §1

Row | SMILES | caspase-6 activity ratio compared to vehicle-treated cells (caspase-6) | microtubule integrity (HeLa cells [1]) | microtubule integrity (MDA-MB-231 cells) | cells with reduced mitochondrial potential (HeLa cells [2]) [%] | caspase 3 activity (caspase 3)
1 | CCc1cc2c(cc1OS(N)(=O)=O)CC[C@@H]1C2CC[C@]2(C)[C@@H](OS(N)(=O)=O)CC[C@@H]12 (stereo partly drawn) [EMBS, (8R, 13S, 14S, 17S)-2-ethyl-13-methyl-7,8,9, 11, 12,13, 14, 15, 16, 17-decahydro-6H-cyclopenta [a] phenanthrane-3, 17-diyl bis (sulphamate)] | 3.1 | microtubule abrogation; also recorded: fragmented microtubules | detyrosinated microtubule fragments | – | –
2 | CCc1cc2c(cc1OS(N)(=O)=O)CC[C@@H]1[C@@H]2CC[C@]2(C)C(=O)C=C[C@@H]12 [ESE-15-one, 2-Ethyl-3-O-sulphamoyl-estra-1,3,5 (10) 15-tetraene-3-ol-17one] | – | microtubule abrogation; also recorded: altered microtubule morphology | detyrosinated microtubule fragments | 72 | most affected
